Experimental data reported in US20110201818A1, “POLO-LIKE KINASE INHIBITORS” (TAKEDA PHARMACEUTICAL COMPANY LIMITED, priority 2007, published 2011).

The molecules below were run against T1, human PLK1 (Homo sapiens, UniProt P53350) (assay: PLK1 in vitro enzymatic activity assay (phosphorylation of alpha casein by recombinant PLK1)). Conditions: recombinant FLAG-tagged PLK1, alpha casein substrate, 500 nmol/L ATP, 40 min at room temperature; read-out: pIC50 (PLK1) (converted).
T1 construct: FLAG (DYKDDDDK) (N); made in house; host or cells: Sf21 insect cells, recombinant baculovirus (pFASTBAC1, Bac-to-Bac)
Format: biochemical
Procedure: PCR was performed using the vector as a template. […] After XbaI and XhoI digestion of the PCR product, the fragment was subcloned into pFASTBAC1 (Invitrogen, USA). Recombinant baculoviruses were prepared according to the procedure of the Bac-to-Bac baculovirus expression system (Invitrogen, USA). Sf21 cells were purchased from Invitrogen and grown in Sf-900 II SFM medium containing 10% fetal bovine serum, 50 μg/mL gentamicin and 0.1% pluronic F-68 (Invitrogen, USA) at 28° C. For preparation of PLK1 enzyme, Sf21 cells were infected with recombinant baculoviruses and cultured at 28° C. for 72 h.
The inhibition of PLK1 by the compounds was determined with the following assay that measures the phosphorylation of alpha casein by recombinant PLK1. Kinase reactions were performed at room temperature for 40 min in the kinase reaction buffer (25 mmol/L HEPES, pH 7.5, 10 mmol/L magnesium acetate, 1 mmol/L dithiothreitol) containing 50 ng PLK1 enzyme, 0.1 μCi [γ-^32P]ATP, 500 nmol/L ATP and 3 μg alpha casein (MP Biomedicals Inc., USA) in a final volume of 50 μL. The incubation was terminated by the addition of 10% trichloroacetic acid (Wako, Japan). Phosphorylated proteins were filtrated in GF/C filter plates (Packard, USA) with a Cell harvester (Packard, USA) and washed out free [γ-^32P]-ATP with 250 mmol/L phosphoric acid. Then, the plates were air dried for 60 min at 45° C., followed by the addition of 20 μL of MicroScint-O (Packard, USA). The radioactivity was counted by a Top-count scintillation counter (Packard, USA).

T1 sequence (P53350 with tags, fused parts or gaps): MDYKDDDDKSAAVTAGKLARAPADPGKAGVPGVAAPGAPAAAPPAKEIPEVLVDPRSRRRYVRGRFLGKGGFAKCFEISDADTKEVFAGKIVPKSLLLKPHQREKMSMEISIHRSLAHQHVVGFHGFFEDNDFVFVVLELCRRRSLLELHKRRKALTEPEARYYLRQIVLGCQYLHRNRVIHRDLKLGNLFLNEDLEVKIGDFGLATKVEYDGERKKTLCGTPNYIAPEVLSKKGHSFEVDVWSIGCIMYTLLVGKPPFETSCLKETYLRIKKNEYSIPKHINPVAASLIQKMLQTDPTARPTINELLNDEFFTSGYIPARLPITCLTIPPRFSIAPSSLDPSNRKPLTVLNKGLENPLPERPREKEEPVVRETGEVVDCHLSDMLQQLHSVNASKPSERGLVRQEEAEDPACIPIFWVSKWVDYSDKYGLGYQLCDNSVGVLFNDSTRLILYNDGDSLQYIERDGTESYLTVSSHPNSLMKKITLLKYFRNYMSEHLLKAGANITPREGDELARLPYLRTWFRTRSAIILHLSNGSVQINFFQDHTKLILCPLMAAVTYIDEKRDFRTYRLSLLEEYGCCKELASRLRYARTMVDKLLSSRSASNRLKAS

| IC50 | Compound |
| --- | --- |
| > 2 nM | COc1cc(C(=O)NCCN2CCCC2)ccc1Nc1ncc2c(n1)N(C1CCCCC1)CC(F)(F)C(=O)N2C [Compound 56, 4-(9-cyclohexyl-7,7-difluoro-5-methyl-6-oxo-6,7,8,9-tetrahydro-5H-pyrimido[4,5-b][1,4]diazepin-2-ylamino)-3-methoxy-N-(2-(pyrrolidin-1-yl)ethyl)benzamide] |
| > 2 nM | COc1cc(C(=O)NC2CCN(C(=O)CN3CCCC3)CC2)ccc1Nc1ncc2c(n1)N(C1CCCC1)CC(F)(F)C(=O)N2C [Compound 12, 4-(9-cyclopentyl-7,7-difluoro-5-methyl-6-oxo-6,7,8,9-tetrahydro-5H-pyrimido[4,5-b][1,4]diazepin-2-ylamino)-3-methoxy-N-(1-(2-(pyrrolidin-1-yl)acetyl)piperidin-4-yl)benzamide] |
| ≤ 2 nM | COc1cc(C(=O)NC[C@@H](C)O)ccc1Nc1ncc2c(n1)N(C1CCCCC1)CC(F)(F)C(=O)N2C [Compound 62, (R)-4-(9-cyclohexyl-7,7-difluoro-5-methyl-6-oxo-6,7,8,9-tetrahydro-5H-pyrimido[4,5-b][1,4]diazepin-2-ylamino)-N-(2-hydroxypropyl)-3-methoxybenzamide] |
| ≤ 2 nM | COc1cc(C(=O)N[C@@H]2CCCC[C@@H]2O)ccc1Nc1ncc2c(n1)N(C1CCCCC1)CC(F)(F)C(=O)N2C (racemic) [Compound 47, 4-(9-cyclohexyl-7,7-difluoro-5-methyl-6-oxo-6,7,8,9-tetrahydro-5H-pyrimido[4,5-b][1,4]diazepin-2-ylamino)-N-((cis)-2-hydroxycyclohexyl)-3-methoxybenzamide] |
| ≤ 2 nM | COc1cc(C(=O)N[C@H]2CC[C@H](O)CC2)ccc1Nc1ncc2c(n1)N(C1CCCCC1)CC(F)(F)C(=O)N2C [Compound 40, 4-(9-cyclohexyl-7,7-difluoro-5-methyl-6-oxo-6,7,8,9-tetrahydro-5H-pyrimido[4,5-b][1,4]diazepin-2-ylamino)-N-((1r,4r)-4-hydroxycyclohexyl)-3-methoxybenzamide] |
| > 2 nM | CCOc1cc(C(=O)NC2CCN(C)CC2)ccc1Nc1ncc2c(n1)N(C1CCCC1)CC(F)(F)C(=O)N2C [Compound 29, 4-(9-Cyclopentyl-7,7-difluoro-5-methyl-6-oxo-6,7,8,9-tetrahydro-5H-pyrimido[4,5-b][1,4]diazepin-2-ylamino)-3-ethoxy-N-(1-methylpiperidin-4-yl)benzamide] |
| ≤ 2 nM | CNC(=O)c1ccc(Nc2ncc3c(n2)N(C2CCCCC2)CC(F)(F)C(=O)N3C)c(OC)c1 [Compound 60, 4-(9-cyclohexyl-7,7-difluoro-5-methyl-6-oxo-6,7,8,9-tetrahydro-5H-pyrimido[4,5-b][1,4]diazepin-2-ylamino)-3-methoxy-N-methylbenzamide] |
| ≤ 2 nM | COc1cc(C(=O)NC2CCN(C)CC2)ccc1Nc1ncc2c(n1)N(C1CCCC1)CC(F)C(=O)N2C (stereo not shown) [Compound 84, 4-(9-cyclopentyl-7-fluoro-5-methyl-6-oxo-6,7,8,9-tetrahydro-5H-pyrimido[4,5-b][1,4]diazepin-2-ylamino)-3-methoxy-N-(1-methylpiperidin-4-yl)benzamide] |
| ≤ 2 nM | COc1cc(C(=O)N[C@@H]2CCCNC2)ccc1Nc1ncc2c(n1)N(C1CCCC1)CC(F)(F)C(=O)N2C [Compound 8, (R)-4-(9-cyclopentyl-7,7-difluoro-5-methyl-6-oxo-6,7,8,9-tetrahydro-5H-pyrimido[4,5-b][1,4]diazepin-2-ylamino)-3-methoxy-N-(piperidin-3-yl)benzamide] |
| ≤ 2 nM | COc1cc(C(=O)NC2CN(C(C)=O)C2)ccc1Nc1ncc2c(n1)N(C1CCCCC1)CC(F)(F)C(=O)N2C [Compound 69, N-(1-acetylazetidin-3-yl)-4-(9-cyclohexyl-7,7-difluoro-5-methyl-6-oxo-6,7,8,9-tetrahydro-5H-pyrimido[4,5-b][1,4]diazepin-2-ylamino)-3-methoxybenzamide] |
